Molecular target: T1, human PPARα (Homo sapiens, UniProt Q07869)
T1 construct: 1.6 kb of DNA fragment including human PPARα gene was collected from the gel; expressed in transfected cells; host or cells: CV-1 cells, transient transfection with pCI-hPPARa, pCI-hRXRa and the reporter pGL3-PPRE3-TK
T1 sequence (Q07869 1-468): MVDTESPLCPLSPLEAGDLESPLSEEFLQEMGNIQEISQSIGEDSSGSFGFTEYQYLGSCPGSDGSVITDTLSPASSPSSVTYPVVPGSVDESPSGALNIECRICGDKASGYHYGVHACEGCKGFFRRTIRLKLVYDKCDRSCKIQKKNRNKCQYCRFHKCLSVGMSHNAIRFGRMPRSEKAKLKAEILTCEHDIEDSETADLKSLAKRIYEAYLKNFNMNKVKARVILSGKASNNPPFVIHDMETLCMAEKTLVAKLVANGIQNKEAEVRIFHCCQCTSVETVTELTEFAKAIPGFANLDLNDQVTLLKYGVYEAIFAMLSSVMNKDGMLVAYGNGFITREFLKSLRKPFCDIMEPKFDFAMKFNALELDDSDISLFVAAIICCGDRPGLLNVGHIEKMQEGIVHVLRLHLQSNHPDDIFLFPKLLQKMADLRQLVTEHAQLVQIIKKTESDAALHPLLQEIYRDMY
T1 sequence (P19793 1-462 partner): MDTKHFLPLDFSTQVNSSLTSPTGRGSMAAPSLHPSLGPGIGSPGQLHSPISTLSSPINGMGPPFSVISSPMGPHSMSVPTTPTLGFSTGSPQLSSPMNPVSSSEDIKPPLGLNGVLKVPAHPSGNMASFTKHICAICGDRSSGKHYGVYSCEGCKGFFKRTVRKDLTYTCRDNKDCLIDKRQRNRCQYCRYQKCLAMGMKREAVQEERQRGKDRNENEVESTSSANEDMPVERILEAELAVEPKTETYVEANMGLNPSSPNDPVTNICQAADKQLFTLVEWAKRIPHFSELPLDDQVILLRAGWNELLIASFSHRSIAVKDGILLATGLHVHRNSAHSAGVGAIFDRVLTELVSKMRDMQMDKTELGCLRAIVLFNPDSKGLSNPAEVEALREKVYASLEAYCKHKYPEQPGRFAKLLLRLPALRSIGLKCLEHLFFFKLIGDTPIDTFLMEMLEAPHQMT
Experiment: Human PPARα agonist assay (luciferase reporter in transfected CV-1 cells)
Type: cell-based
Conditions: at 1 μM test compound alone; 100% = 1 μM stimulant (GW7647) only; CV-1 cells expressing human PPARα and RXRα
Procedure: CV-1 cells (96 well plate), where human PPARα and RXRα has expressed in the transient transfection of reporter plasmid (see reference 6a) were washed once with PBS (100 μL/well), and then supplemented with 100 μL/well of DMEM medium including 10% of fetal bovine serum to which test compounds at final concentrations of 10 nM, 30 nM, 100 nM, 300 nM, 1 μM, and 3 μM, as well as GW7647 (not limited to GW7647 shown as an example, but may be any PPARα agonist) at a final concentration of 1 nM as a stimulant were added, and incubated in a 5% CO2 incubator at 37° C. for 24 hours. After removing the medium, the CV-1 cells were washed once with PBS (100 μL/well), and supplemented with 60 μL/well of 1× Passive Lysis Buffer (manufactured by Promega Corporation). The CV-1 cells were incubated at room temperature for 30 minutes, stirred, and then by using Dual-Luciferase Reporter Assay System (manufactured by Promega Corporation), luciferase activities of firefly and renilla were measured using 1420 ARVO Multilabel Counter (manufactured by Wallac Oy). Also, the same experiments as that described above were respectively carried out for the cases where only the above-mentioned stimulant (10 nM, 100 nM, 1 μM) were used, where only the above-mentioned test compounds were used, or where neither was used (nonsupplemented), and luciferase activities of firefly and renilla were measured. Values corrected by dividing the firefly luciferase activities by the renilla luciferase activities were calculated as specific activities and used for evaluations. […]
Also, human PPARα agonist activities of the test compounds were evaluated by using a percentage (activity) where the specific activity when nonsupplemented is regarded as 0% and the specific activity in case only 1 μM stimulant was added is regarded as 100%, from the specific activity in case only the test compound is used.
CV-1 cells were cultured in DMEM medium (manufactured by Invitrogen Corporation) including 10% fetal bovine serum (manufactured by Dainippon Pharmaceutical Co., Ltd.) in 225T-Flask (manufactured by Corning Costar). The cells were detached by 0.5 g/L trypsin-0.2 g/L EDTA (ethylene diamine tetra-acetic acid) (manufactured by Invitrogen Corporation), and then suspended in the DMEM medium including 10% fetal bovine serum to a cell concentration of 2×10^5 cells/mL. Thereafter, the cells were seeded into 96 well plate at 2×10^4 cells/0.1 mL/well, incubated in the CO2 incubator at 37° C. overnight, and then the plasmids prepared by the above-mentioned reference 2a, reference 3a, and reference 4a were transfected into cells by using a lipofectamine reagent (manufactured by Invitrogen Corporation) according to the attached manual.
Namely, after CV-1 cells were cultured overnight, the cells were washed with PBS (100 μL/well). Thereafter the cells were incubated for 5 hours at 37° C./5% CO2 in the MEM medium (manufactured by Invitrogen Corporation) including 430 ng/mL of human PPARα expression plasmid (pCI-hPPARa) prepared by the reference 2a, 430 ng/mL of human RXRα expression plasmid (pCI-hRXRa) prepared by the reference 3a, and 140 ng/mL of the reporter plasmid (pGL3-PPRE3-TK) prepared by the reference 4a, 10 ng/mL of phRL-TK vector (manufactured by Promega Corporation) and 2 μL/mL of lipofectamine.

| Compound | Human PPARα agonist activities, Activity % (at 1 μM) [%] |
| --- | --- |
| COc1cc(Cn2c3ccccc3c3c(OC(C)(C)C(=O)O)cccc32)ccc1OCc1nc(-c2ccncc2)oc1C [Example 9, 2-{9-[3-methoxy-4-((5-methyl-2-(pyridine-4-yl)-oxazole-4-yl)methoxy)-benzyl]-9H-carbazole-4-yloxy}-2-methyl-propionic acid] | 27 |
| COc1cc(Cn2c3ccccc3c3c(OC(C)(C)C(=O)[O-])cccc32)ccc1OCc1nc(-c2ccccc2)oc1C.[Na+] [Example 28, sodium 2-{9-[3-methoxy-4-((5-methyl-2-phenyl-oxazole-4-yl)methoxy)-benzyl]-9H-carbazole-4-yloxy}-2-methyl-propionate] | 56 |

— patent US8329913B2, “Carbazole derivative, solvate thereof, or pharmaceutically acceptable salt thereof” (Zeria Pharmaceutical Co., Ltd., priority 2004, dated 2012)
